The record followed here is US8476298B2 (Exelixis, Inc., priority 2003, dated 2013).

Test [1] concerns the target T1, Flt-3 (baculovirus expressed human Flt-3 kinase domain R571-S993) (Homo sapiens, UniProt P36888).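 Note: Luciferase-coupled chemiluminescent kinase assay, activity read as percent ATP left after a 3 h reaction at room temperature, ATP near KM, 10-point dose-response.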
T1 construct: human Flt-3 kinase domain R571-S993; host or cells: baculovirus expression
T1 sequence (P36888 571-993): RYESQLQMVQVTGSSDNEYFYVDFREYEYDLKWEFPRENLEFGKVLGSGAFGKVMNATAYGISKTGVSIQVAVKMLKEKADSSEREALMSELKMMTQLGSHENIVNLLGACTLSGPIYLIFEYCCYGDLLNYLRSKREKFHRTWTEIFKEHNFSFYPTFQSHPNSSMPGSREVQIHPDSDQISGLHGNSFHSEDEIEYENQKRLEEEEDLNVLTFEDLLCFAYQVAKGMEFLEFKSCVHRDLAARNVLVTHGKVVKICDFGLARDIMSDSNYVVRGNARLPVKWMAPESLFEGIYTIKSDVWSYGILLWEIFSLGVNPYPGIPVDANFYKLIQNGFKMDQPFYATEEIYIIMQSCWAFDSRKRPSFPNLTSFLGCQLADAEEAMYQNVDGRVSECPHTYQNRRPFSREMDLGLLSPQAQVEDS
As to the kind of experiment: biochemical. The settings on record: read-out: flt3 IC50.

Test [2] has as its target T2, c-Met (baculovirus expressed human c-Met kinase domain P948-S1343) (Homo sapiens, UniProt P08581).
T2 construct: human c-Met kinase domain P948-S1343; host or cells: baculovirus expression
Put plainly: c-Met Luciferase-Coupled Chemiluminescent Kinase assay (LCCA).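 Note: kinase activity read as percent ATP left after reaction, by luciferase-luciferin chemiluminescence, with 1 µM ATP and 1 µM poly-EY substrate, 2 h at ambient temperature, 10-point dose-response.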 The format is biochemical.

Test [3] addresses T3, KDR (baculovirus expressed human KDR kinase domain D807-V1356) (Homo sapiens, UniProt P35968).
T3 construct: human KDR kinase domain D807-V1356; host or cells: baculovirus expression
Put plainly: biochemical.

T3 sequence (P35968 807-1356): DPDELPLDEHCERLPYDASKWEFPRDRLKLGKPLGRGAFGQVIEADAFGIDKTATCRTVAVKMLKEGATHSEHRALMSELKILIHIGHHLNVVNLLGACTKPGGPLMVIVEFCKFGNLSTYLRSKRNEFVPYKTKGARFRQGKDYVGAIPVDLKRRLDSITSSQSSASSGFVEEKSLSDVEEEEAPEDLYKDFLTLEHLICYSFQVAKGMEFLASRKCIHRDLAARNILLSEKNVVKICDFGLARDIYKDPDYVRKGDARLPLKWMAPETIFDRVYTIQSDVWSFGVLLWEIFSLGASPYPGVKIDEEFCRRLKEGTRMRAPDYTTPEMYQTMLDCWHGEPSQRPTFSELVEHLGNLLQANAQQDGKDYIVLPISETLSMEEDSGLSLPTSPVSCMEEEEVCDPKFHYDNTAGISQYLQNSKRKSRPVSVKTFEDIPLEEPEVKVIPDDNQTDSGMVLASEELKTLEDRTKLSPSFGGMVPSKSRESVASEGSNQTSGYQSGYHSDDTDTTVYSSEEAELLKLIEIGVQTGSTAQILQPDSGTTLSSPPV
T2 sequence (P08581 1011-1343 limits assumed): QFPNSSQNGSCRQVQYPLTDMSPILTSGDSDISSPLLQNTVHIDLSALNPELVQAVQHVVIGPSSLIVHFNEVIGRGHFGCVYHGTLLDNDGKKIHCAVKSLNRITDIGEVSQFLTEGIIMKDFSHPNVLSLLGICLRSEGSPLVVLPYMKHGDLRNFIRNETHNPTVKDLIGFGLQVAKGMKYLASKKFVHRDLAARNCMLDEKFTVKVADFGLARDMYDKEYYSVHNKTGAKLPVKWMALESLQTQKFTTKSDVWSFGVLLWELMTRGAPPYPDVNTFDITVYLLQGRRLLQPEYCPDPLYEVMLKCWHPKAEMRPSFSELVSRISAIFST

As usually defined, the IC50 is the concentration needed to halve the response being measured. `COc1cc2c(Oc3ccc(NC(=O)[C@]4(C(=O)Nc5ccc(F)cc5)C[C@H]4C)cc3F)ncnc2cc1OCCCN1CCNCC1` [Example 390, (1R,2R)-N-[3-fluoro-4-({6-(methyloxy)-7-[(3-piperazin-1-ylpropyl)oxy]quinazolin-4-yl}oxy)phenyl]-N′-(4-fluorophenyl)-2-methylcyclopropane-1,1-dicarboxamide]: the IC50 in test [1], in test [2] and in test [3] was less than 50 nM each time.

`CCN(CC)CCOc1cc2nccc(Oc3ccc(NC(=O)[C@@]4(C(=O)Nc5ccc(F)cc5)[C@H](C)[C@@H]4C)cc3F)c2cc1OC` [Example 376, (1r,2R,3S)-N-(4-{[7-{[2-(diethylamino)ethyl]oxy}-6-(methyloxy)quinolin-4-yl]oxy}-3-fluorophenyl)-N′-(4-fluorophenyl)-2,3-dimethylcyclopropane-1,1-dicarboxamide]: the concentration for half-maximal inhibition (IC50) in test [1] was 50 to 500 nM; in test [2], less than 50 nM; in test [3], 50 to 500 nM.

As for `COc1cc2c(Oc3ccc(NC(=O)[C@@]4(C(=O)Nc5ccc(F)cc5)[C@H](C)[C@@H]4C)cc3F)ncnc2cc1OCCCN1CCN(C)CC1` [Example 368, (1r,2R,3S)-N-{3-fluoro-4-[(6-(methyloxy)-7-{[3-(4-methylpiperazin-1-yl)propyl]oxy}quinazolin-4-yl)oxy]phenyl}-N′-(4-fluorophenyl)-2,3-dimethylcyclopropane-1,1-dicarboxamide], the 50% inhibitory concentration (IC50) is 50 to 500 nM in test [1], less than 50 nM in test [2] and less than 50 nM in test [3].

`COc1cc2c(Oc3ccc(NC(=O)[C@@]4(C(=O)Nc5ccc(F)cc5)[C@H](C)[C@@H]4C)cc3F)ccnc2cc1OCCCN1CCOCC1` [Example 365, (1r,2R,3S)-N-[3-fluoro-4-({6-(methyloxy)-7-[(3-morpholin-4-ylpropyl)oxy]quinolin-4-yl}oxy)phenyl]-N′-(4-fluorophenyl)-2,3-dimethylcyclopropane-1,1-dicarboxamide]: the 50% inhibitory concentration (IC50) is 50 to 500 nM in test [1], less than 50 nM in test [2] and 50 to 500 nM in test [3].

Turning to `COc1cc2c(Oc3ccc(NC(=O)[C@]4(C(=O)Nc5ccc(F)cc5)C[C@H]4C)cc3F)ccnc2cc1OCCCN1CCN(C)CC1` [Example 355, (1R,2R)-N-{3-fluoro-4-[(6-(methyloxy)-7-{[3-(4-methylpiperazin-1-yl)propyl]oxy}quinolin-4-yl)oxy]phenyl}-N′-(4-fluorophenyl)-2-methylcyclopropane-1,1-dicarboxamide], the IC50 in test [1], in test [2] and in test [3] was less than 50 nM throughout.

Consider `COc1cc2c(Oc3ccc(NC(=O)C4(C(=O)Nc5ccc(F)cc5)[C@H](C)[C@H]4C)cc3F)ccnc2cc1OCCCN1CCOCC1` (stereo partly drawn) [Example 370, (2R,3R)-N-[3-fluoro-4-({6-(methyloxy)-7-[(3-morpholin-4-ylpropyl)oxy]quinolin-4-yl}oxy)phenyl]-N′-(4-fluorophenyl)-2,3-dimethylcyclopropane-1,1-dicarboxamide], for which the half-maximal inhibitory concentration (IC50) is 50 to 500 nM in test [1], less than 50 nM in test [2] and less than 50 nM in test [3].

In the case of `COc1cc2c(Oc3ccc(NC(=O)C4(C(=O)Nc5ccc(F)cc5)CCC4)cc3F)ncnc2cc1OCCCN1CCNCC1` [Example 382, N-[3-fluoro-4-({6-(methyloxy)-7-[(3-piperazin-1-ylpropyl)oxy]quinazolin-4-yl}oxy)phenyl]-N′-(4-fluorophenyl)cyclobutane-1,1-dicarboxamide], the IC50 in test [1] is 50 to 500 nM; in test [2] it was less than 50 nM; in test [3] it was less than 50 nM.

Turning to `CCN(CC)CCOc1cc2ncnc(Oc3ccc(NC(=O)C4(C(=O)Nc5ccc(F)cc5)[C@H](C)[C@H]4C)cc3F)c2cc1OC` (stereo partly drawn) [Example 388, (2R,3R)-N-(4-{[7-{[2-(diethylamino)ethyl]oxy}-6-(methyloxy)quinazolin-4-yl]oxy}-3-fluorophenyl)-N′-(4-fluorophenyl)-2,3-dimethylcyclopropane-1,1-dicarboxamide], the half-inhibitory concentration (IC50) was 500 to 5000 nM in test [1], 50 to 500 nM in test [2] and less than 50 nM in test [3].
